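A five-concentration, 48-hour dose response in 96-well plates underlies each endpoint, interpolated linearly between surrounding concentrations. The concentration for full growth arrest is given as TGI.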
Legend:
Assay in all cases: NCI-60 cell line screen, 48 h
[1] = tested on: SK-OV-3 ovarian
[2] = tested on: SF-539 CNS
[3] = tested on: HCT-15 colon
[4] = tested on: HCC-2998 colon
[5] = tested on: A498 renal
[6] = tested on: MDA-MB-435
[7] = tested on: HT29 colon
[8] = tested on: KM20L2 colon
[9] = tested on: DMS 273 small cell lung
[10] = tested on: HOP-18 NSCLC
[11] = tested on: M19-MEL melanoma

| SMILES | TGI [1] [µM] | TGI [2] [µM] | TGI [3] [µM] | TGI [4] [µM] | TGI [5] [µM] | TGI [6] [µM] | TGI [7] [µM] | TGI [8] [µM] | TGI [9] [µM] | TGI [10] [µM] | TGI [11] [µM] |
| --- | --- | --- | --- | --- | --- | --- | --- | --- | --- | --- | --- |
| CCCN(C(=O)c1ccccc1)C(C#N)c1ccc(C(C#N)N(CCC)C(=O)c2ccccc2)cc1 (stereo unspecified) | > 100 | 87.6 | > 100 | > 100 | > 100 | > 100 | > 100 |  |  |  |  |
| CC(C)(C)N1CSC(=S)N(Cc2ccco2)C1 | 18.9 | 2.62 | 10.6 | 13.3 | 26.7 | 13.4 | 13.8 |  |  |  |  |
| Cc1nc2n(c1/C=C1/C(=O)Nc3cccc(Cl)c31)CCS2 | 35.1 | 35.2 | > 100 | > 100 | > 100 | > 100 | > 100 |  |  |  |  |
| O=C(N/N=C(/COc1ccc(Cl)cc1)N=Cc1ccncc1)c1ccncc1 | > 100 | > 100 | > 100 | > 100 | > 100 | > 100 | > 100 |  |  |  |  |
| Cc1ccccc1C(=O)N1CCc2c([nH]c3ccccc23)C1 | > 100 | 48.4 | 62.1 | 33.9 | 51.4 | 37.3 | 44.7 |  |  |  |  |
| c1ccc(N=c2sc3ccccc3nc2Nc2ccccc2)cc1 | > 100 | > 100 | > 100 | > 100 | > 100 | > 100 | > 100 |  |  |  |  |
| COc1cc2nc3n(c(=O)c2cc1OC)-c1ccc([N+](=O)[O-])cc1C3=O | > 100 | > 100 | > 100 | > 100 | 78.6 | 40.1 | > 100 |  |  |  |  |
| C=C(C)C(=O)OC1C/C(CO)=C\C(O)C/C(C)=C/C2OC(=O)C(=C)C21 (stereo unspecified) | > 100 | 46.3 | 29.6 |  |  |  | 34.1 | 97.3 | > 100 | 83.4 | 92.7 |
| Cc1ccc(N=NC(=Nc2ccccc2)c2ccc(N(CCC#N)CCC#N)cc2)cc1 | > 100 | > 100 | > 100 | 48.6 | > 100 | > 100 | > 100 |  |  |  |  |
| CCCCCCc1cc2cc(-c3csc(CC#N)n3)c(=O)oc2cc1O | 97.6 | > 64.5 | > 100 | > 100 | > 100 | > 100 | > 100 |  |  |  |  |

Source: PubChem BioAssay (NCI)
